Laboratory results taken from publication PMC10146426, “Naturally Occurring Chalcones with Aggregation-Induced Emission Enhancement Characteristics” (Molecules, 2023).
Read-outs that look alike come from different tables or passages of the source.

Assays:
[1] = biological target: T1, butyrylcholinesterase (BuChE, E.C. 3.1.1.8, from equine serum) (Equus caballus, UniProt P81908); test: BuChE inhibition (Ellman method); format: biochemical
T1 construct: butyrylcholinesterase (BuChE, E.C. 3.1.1.8, from equine serum); purchased Sigma-Aldrich (Steinheim, Germany); host or cells: equine serum (natural source)
Protocol: (§1) The inhibitory activities against AChE and BuChE of the prepared compounds were performed by means of the method previously developed by Ellman et al. using neostigmine as the reference compound [68]. This is based on the reaction of released thiocholine to give a coloured product with a chromogenic reagent. Seven different concentrations of the compounds in the range 10^−9–10^−3 M were measured at 412 nm. All the assays were performed in the 0.1 M NaH2PO4/Na2HPO4 buffer (pH = 8) using the Varian Cary 50 spectrophotometer. 5,5′-Dithio-bis(2-nitrobenzoic acid) (DTNB) was used to measure the anti-AChE activity. […] Briefly, 140 µL of 0.1 mM sodium phosphate buffer (pH 8.0), 20 µL of DTNB, 20 µL of the assay solution and 20 µL of the AChE/BuChE solution were added and incubated for 15 min at 25 °C. The reaction was then initiated by adding 10 µL of acetylthiocholine iodide or butylthiocholine iodide. Yellow anion (2-nitro-5-thiobenzoic acid) formation was recorded at 412 nm for 10 min. It was determined by preparing an identical solution of the enzyme in the absence of tested compounds (as the control). Control and inhibitor readings were corrected with a blank read. All operations were repeated three times. The inhibition properties are reported as the IC50 values, which were determined graphically from the inhibition curves of log inhibitor concentration vs. the percentage of inhibition. The IC50 values represent the concentration of the inhibitor required for 50% inhibition of the enzyme.

[2] = DPPH radical-scavenging activity assay; conditions: for DPPH Radical Scavenging (%) after 30 min / DPPH Radical Scavenging (%) after 60 min: mean ± SD
Protocol: 2,2-Diphenylpicrylhydrazyl (DPPH) was purchased from Sigma-Aldrich (Steinheim, Germany). DPPH radical-scavenging activity was determined according to the method described by Brand-Williams et al. using (+)-catechin (Sigma-Aldrich, Steinheim, Germany) as the positive control. The chalcone samples were previously dissolved in DMSO and MeOH at the molar concentration of 2 × 10^–3 M. The positive control sample was dissolved in DMSO at the same molar concentration. The DPPH stock solution was diluted 10× with methanol to obtain the concentration of 1 × 10^–4 M. The measurements: 70 μL of the sample was added to 4 mL of the DPPH solution, and the samples were left for 30 or 60 min at room temperature in the dark. The absorbance was recorded at 517 nm by s Varian Cary 50 spectrophotometer. The control was prepared as above without any sample.
DPPH free-radical scavenging activity was calculated using the following Formula (2):(2) Scavenging activity [%]=[Absorbance of control−Absorbance of test sample]/Absorbance control×100 where the absorbance of control is the absorbance of DPPH radicals in the absence of compounds, and the absorbance of the test sample is the absorbance in the presence of the studied compound.

[3] = biological target: T2, Acetylcholinesterase (AChE, E.C. 3.1.1.7, from human erythrocytes) (Homo sapiens, UniProt P22303); test: AChE inhibition (Ellman method); format: biochemical
T2 construct: Acetylcholinesterase (AChE, E.C. 3.1.1.7, from human erythrocytes); purchased Sigma-Aldrich (Steinheim, Germany); host or cells: human erythrocytes (natural source)
Protocol: as §1

[4] = pH 8 phosphate buffer, 25 °C, n = 9, read-out: BuChE IC50 Mean ± SD
[5] = samples dissolved in DMSO (stock 2 × 10^−3 M), three experiments
[6] = samples dissolved in MeOH (stock 2 × 10^−3 M)
[7] = pH 8 phosphate buffer, 25 °C, n = 9, read-out: AChE IC50 Mean ± SD

T1 sequence (P81908 whole entry): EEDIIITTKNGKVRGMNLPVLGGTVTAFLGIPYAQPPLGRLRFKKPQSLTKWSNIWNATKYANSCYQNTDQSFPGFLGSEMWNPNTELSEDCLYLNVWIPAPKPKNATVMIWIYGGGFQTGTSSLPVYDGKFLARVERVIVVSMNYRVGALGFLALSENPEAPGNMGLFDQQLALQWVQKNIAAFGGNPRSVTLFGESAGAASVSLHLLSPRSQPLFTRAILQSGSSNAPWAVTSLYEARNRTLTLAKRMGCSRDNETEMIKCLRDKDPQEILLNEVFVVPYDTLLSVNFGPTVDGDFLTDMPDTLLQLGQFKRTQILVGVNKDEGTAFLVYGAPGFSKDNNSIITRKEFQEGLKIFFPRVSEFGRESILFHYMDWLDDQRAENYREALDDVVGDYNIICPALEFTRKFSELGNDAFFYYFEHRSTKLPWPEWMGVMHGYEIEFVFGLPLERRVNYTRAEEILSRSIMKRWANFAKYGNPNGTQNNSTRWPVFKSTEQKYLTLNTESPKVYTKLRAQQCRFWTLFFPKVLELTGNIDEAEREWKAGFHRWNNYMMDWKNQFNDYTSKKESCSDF
T2 sequence (P22303 32-617 isoform P22303-2 limits assumed): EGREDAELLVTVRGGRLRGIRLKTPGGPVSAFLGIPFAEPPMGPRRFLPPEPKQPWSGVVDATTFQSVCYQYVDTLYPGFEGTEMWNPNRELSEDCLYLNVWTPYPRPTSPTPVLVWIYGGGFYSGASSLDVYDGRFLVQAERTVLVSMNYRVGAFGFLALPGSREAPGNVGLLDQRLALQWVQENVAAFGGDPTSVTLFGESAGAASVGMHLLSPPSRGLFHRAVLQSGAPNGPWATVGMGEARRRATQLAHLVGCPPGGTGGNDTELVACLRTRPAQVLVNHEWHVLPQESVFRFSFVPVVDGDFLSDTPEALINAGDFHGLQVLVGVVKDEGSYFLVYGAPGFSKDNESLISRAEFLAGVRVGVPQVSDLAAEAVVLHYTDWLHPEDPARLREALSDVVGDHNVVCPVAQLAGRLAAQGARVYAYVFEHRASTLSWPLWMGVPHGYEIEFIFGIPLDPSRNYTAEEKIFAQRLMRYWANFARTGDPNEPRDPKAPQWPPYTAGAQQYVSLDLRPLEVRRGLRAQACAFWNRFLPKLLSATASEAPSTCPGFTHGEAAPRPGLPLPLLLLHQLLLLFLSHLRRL

COc1ccc(/C=C/C(=O)c2c(O)cc(OC)cc2OC)cc1 [HCH, 2′-hydroxy-4,4′,6′-trimethoxychalcone]
IC50 [1, 4]: 76.5 ± 3.03 µM
DPPH Radical Scavenging (%) after 30 min [2, 5]: 2.09 ± 0.03%
DPPH Radical Scavenging (%) after 30 min [2, 6]: 0.30 ± 0.06%
DPPH Radical Scavenging (%) after 60 min [2, 6]: 0.35 ± 0.05%
IC50 [3, 7]: > 100 µM
inhibitory properties towards AChE ([3]; result in words): did not show any inhibitory properties

COc1cc(O)cc(O)c1C(=O)/C=C/c1ccccc1 [CA, cardamonin]
IC50 [1]: 75.29 ± 0.41 µM
DPPH Radical Scavenging (%) after 30 min [2, 5]: 2.09 ± 0.05%
DPPH Radical Scavenging (%) after 30 min [2, 6]: 0.79 ± 0.07%
DPPH Radical Scavenging (%) after 60 min [2, 6]: 1.33 ± 0.14%
IC50 [3]: 67.87 ± 0.01 µM

COc1cc(O)c(CC=C(C)C)c(O)c1C(=O)/C=C/c1ccc(O)cc1 [XN, xanthohumol]
IC50 [1, 4]: 65.79 ± 0.34 µM
DPPH Radical Scavenging (%) after 30 min [2, 5]: 7.99 ± 0.05%
DPPH Radical Scavenging (%) after 30 min [2, 6]: 4.34 ± 0.05%
DPPH Radical Scavenging (%) after 60 min [2, 6]: 6.72 ± 0.30%
IC50 [3, 7]: 40.81 ± 0.04 µM

Oc1cc(O)c2c(c1)O[C@H](c1ccc(O)c(O)c1)[C@@H](O)C2 [(+)-catechin, reference compound]
DPPH Radical Scavenging (%) after 30 min [2, 5]: 94.14 ± 0.44%

CN(C)C(=O)Oc1cccc([N+](C)(C)C)c1 [Neostygmine, neostigmine bromide, reference compound]
IC50 [1]: 0.03 ± 0.01 µM

CC(C)=CCc1c(O)ccc(C(=O)/C=C/c2ccc(O)cc2)c1O [IBC, isobavachalcone]
IC50 [1, 4]: 43.05 ± 0.16 µM
DPPH Radical Scavenging (%) after 30 min [2, 5]: 2.36 ± 0.07%
DPPH Radical Scavenging (%) after 30 min [2, 6]: 0.61 ± 0.01%
DPPH Radical Scavenging (%) after 60 min [2, 6]: 1.03 ± 0.06%
IC50 [3, 7]: 35.48 ± 0.01 µM

C=CC(C)(C)c1cc(/C=C/C(=O)c2ccc(O)cc2)c(OC)cc1O [LIC, licochalcone A]
IC50 [1]: 42.28 ± 0.06 µM
DPPH Radical Scavenging (%) after 30 min [2, 5]: 29.24 ± 0.70%
DPPH Radical Scavenging (%) after 30 min ([2]; samples dissolved in DMSO (stock 2 × 10^−3 M), three experiments, listed as licochalcone A): ~ 29%
DPPH Radical Scavenging (%) after 30 min [2, 6]: 26.50 ± 0.92%
DPPH Radical Scavenging (%) after 60 min [2, 6]: 29.60 ± 0.98%
DPPH Radical Scavenging (%) after 60 min ([2]; samples dissolved in MeOH (stock 2 × 10^−3 M), listed as licochalcone A): ~ 29%
DPPH radical scavenging (%) ([2]; solvent and time not stated): 29%
IC50 [3]: 23.41 ± 0.02 µM
